Our source for the IC50 values is patent publication US11524960B2, “Heterobicyclic inhibitors of MAT2A and methods of use for treating cancer” (AGIOS PHARMACEUTICALS, INC., priority 2018, dated 2022).

Where only a bound is given, the exact number is not on record here.

For one test, the system named is HCT116 MTAP+/+. Nature of the test: Inhibition of cellular proliferation (Cell Titer Glo), HCT116 MTAP+/+. Particulars: Homo sapiens, HCT-116, 96 h, 4 days, IC50 score, read-out: 4 Day Relative Growth Inhibition (MTAP +/+; Example 277). It is filed as cell-based, human. The essentials:
(§1)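 Isogenic HCT116 lines, MTAP+/+ and MTAP−/−, treated 24 h after plating with 10-point 3-fold compound dilutions including DMSO only, then grown 4 days at 37 °C/5% CO2. Cell Titer Glo ATP luminescence, blank-subtracted and normalised to 0.2% DMSO control, gave percent change in proliferation versus log concentration.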
(In general: ATP-based viability assays read luminescence as a measure of living cells.)

The next test has as its system HCT116 MTAP−/−. The test can be described thus: Inhibition of cellular proliferation (Cell Titer Glo), HCT116 MTAP−/−. It counts as cell-based, human. Particulars: Homo sapiens, HCT-116, 96 h, 4 days, IC50 score, read-out: 4 Day Relative Growth Inhibition (MTAP −/−; Example 277). The essentials:
as §1

Test [1] concerns SAM in HCT116 human colon carcinoma cell line engineered to delete the MTAP gene (MTAP −/−). Nature of the test: Cellular assay of target engagement (SAM) by LC-MS/MS. It counts as cell-based. Conditions: Homo sapiens, HCT-116, 72 h, IC50 score, read-out: Cell 72 h SAM Inhibition (MTAP −/−; Example 276). In outline: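 MTAP-deleted HCT116 cells were dosed 24 h after plating with a 10-point 3-fold compound series in DMSO, then incubated 72 h at 37 °C/5% CO2. Cells were extracted in cold 80% methanol with acetic acid and d3-SAM internal standard. SAM was quantified by LC-MS/MS MRM (m/z 399.2→250.1).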

A further test deals with T1, MAT2A homodimer (Homo sapiens, UniProt P31153).
T1 construct: inferred from Ni sepharose purification and imidazole elution; made in house; host or cells: Sf9 insect cells, recombinant baculovirus (Bac to Bac, pFASTBAC1)
T1 sequence (P31153 whole entry): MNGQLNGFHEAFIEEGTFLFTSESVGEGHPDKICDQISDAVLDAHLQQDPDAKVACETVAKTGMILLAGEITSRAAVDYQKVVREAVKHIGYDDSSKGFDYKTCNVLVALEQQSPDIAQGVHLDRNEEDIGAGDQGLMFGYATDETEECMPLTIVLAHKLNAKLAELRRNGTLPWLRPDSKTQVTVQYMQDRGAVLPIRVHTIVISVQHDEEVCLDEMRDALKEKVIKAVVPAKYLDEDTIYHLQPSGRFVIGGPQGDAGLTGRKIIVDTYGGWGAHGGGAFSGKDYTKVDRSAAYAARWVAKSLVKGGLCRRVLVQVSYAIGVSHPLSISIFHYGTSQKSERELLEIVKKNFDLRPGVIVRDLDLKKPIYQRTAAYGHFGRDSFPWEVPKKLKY
Nature of the test: Biochemical assay: inhibition of MAT2A (phosphate release, PiColorLock Gold). Particulars: MAT2A IC50 score; read-out: Enzyme Inhibition (Example 275). The essentials: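 Baculovirus/Sf9-expressed, Ni-purified MAT2A at 4 µg/mL was preincubated with compound for 60 min at 25 °C in 50 mM Tris pH 8.0, 50 mM KCl, 15 mM MgCl2, 0.3 mM EDTA, 0.005% BSA. Substrate mix (500 μM ATP, 400 μM L-methionine) was added and the reaction ran 60 min at 25 °C. Phosphate released stoichiometrically with SAM was measured colorimetrically against a phosphate standard curve.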

With `CCOc1cnc2cn(-c3ccc4nn(C)cc4c3)c(=O)c(-c3ccc(Cl)cc3)c2n1` [Example 147-A], the IC50 is above 10000 nM in the test with HCT116 MTAP+/+, below 100 nM in the test on HCT116 MTAP−/−, below 100 nM in test [1] and below 100 nM on MAT2A homodimer.
`Cn1cc2cc(-n3cc4ccc(NC5CC5)nc4c(-c4ccc(OC(F)F)cc4)c3=O)ccc2n1` [Example 242, 2-(cyclopropylamino)-8-(4-(difluoromethoxy)phenyl)-6-(2-methyl-2H-indazol-5-yl)-1,6-naphthyridin-7(6H)-one]: the IC50 is above 10000 nM in the test with HCT116 MTAP+/+, below 100 nM in the test on HCT116 MTAP−/−, below 100 nM in test [1] and below 100 nM on MAT2A homodimer.
With `CCOc1ccc2cn(-c3ccc4nn(C)cc4c3)c(=O)c(-c3ccc(OC(F)(F)F)cc3)c2n1` [Example 217, 2-ethoxy-6-(2-methyl-2H-indazol-5-yl)-8-(4-(trifluoromethoxy)phenyl)-1,6-naphthyridin-7(6H)-one], the IC50 was above 10000 nM with HCT116 MTAP+/+, 100 to 10000 nM with HCT116 MTAP−/−, below 100 nM in test [1] and below 100 nM on MAT2A homodimer.
On to `COc1ccc(-n2cc3ccc(OCC(F)(F)F)nc3c(-c3ccc(OC(F)F)cc3)c2=O)cc1` [Example 258, 8-(4-(difluoromethoxy)phenyl)-6-(4-methoxyphenyl)-2-(2,2,2-trifluoroethoxy)-1,6-naphthyridin-7(6H)-one], for which the IC50 with HCT116 MTAP+/+ was 100 to 10000 nM; in the test on HCT116 MTAP−/−, 100 to 10000 nM; in test [1], below 100 nM; on MAT2A homodimer, below 100 nM.
In the case of `COc1ccc(-n2cc3cnc(NCC(F)F)nc3c(-c3ccc(Br)cc3)c2=O)cc1` [Example 189, 8-(4-bromophenyl)-2-((2,2-difluoroethyl)amino)-6-(4-methoxyphenyl)pyrido[4,3-d]pyrimidin-7(6H)-one], the IC50 was 100 to 10000 nM in the test on HCT116 MTAP+/+, 100 to 10000 nM in the test with HCT116 MTAP−/−, below 100 nM in test [1] and below 100 nM on MAT2A homodimer.
For `Cn1cc2cc(-n3cc4ccc(NCC(F)(F)F)nc4c(-c4ccc(OC(F)F)cc4)c3=O)ccc2n1` [Example 239, 8-(4-(difluoromethoxy)phenyl)-6-(2-methyl-2H-indazol-5-yl)-2-(2,2,2-trifluoroethylamino)-1,6-naphthyridin-7(6H)-one], the IC50 in the test on HCT116 MTAP+/+ was 100 to 10000 nM; in the test with HCT116 MTAP−/−, below 100 nM; in test [1], below 100 nM; on MAT2A homodimer it was below 100 nM.
Regarding `CCOc1cnc2cn(-c3ccc4ncccc4c3)c(=O)c(-c3ccc(Cl)cc3)c2n1` [Example 142-A], the IC50 was above 10000 nM in the test on HCT116 MTAP+/+, 100 to 10000 nM with HCT116 MTAP−/−, 100 to 1000 nM in test [1] and below 100 nM on MAT2A homodimer.
In the same order, the values of `CCn1cc2cc(-n3cc4cnc(NCC(F)(F)F)nc4c(-c4ccc(OC(F)F)cc4)c3=O)ccc2n1` [Example 152, 8-(4-(difluoromethoxy)phenyl)-6-(2-ethyl-2H-indazol-5-yl)-2-((2,2,2-trifluoroethyl)amino)pyrido[4,3-d]pyrimidin-7(6H)-one] are above 10000 nM, below 100 nM, below 100 nM and below 100 nM.
Consider `CCOc1ccc2cn(-c3ccc4ncn(C)c4c3)c(=O)c(-c3ccc(C4CC4)nc3)c2n1` [Example 228, 8-(6-cyclopropylpyridin-3-yl)-2-ethoxy-6-(1-methyl-1H-benzo[d]imidazol-6-yl)-1,6-naphthyridin-7(6H)-one], for which the IC50 with HCT116 MTAP+/+ was 100 to 10000 nM; in the test on HCT116 MTAP−/− it was below 100 nM; in test [1], below 100 nM; on MAT2A homodimer, below 100 nM.
For the compound `Cn1cc2cc(-n3cc4ccc(OCC(F)(F)F)nc4c(-c4ccc(C(F)F)nc4)c3=O)ccc2n1` [Example 118-A], the IC50 was 100 to 10000 nM in the test with HCT116 MTAP+/+, below 100 nM with HCT116 MTAP−/−, below 100 nM in test [1] and below 100 nM at MAT2A homodimer.
On to `CCOc1ccc2cn(-c3ccc4nn(C)cc4c3)c(=O)c(-c3ccc(-c4nc[nH]n4)cc3)c2n1` [Example 222, 8-(4-(1H-1,2,4-triazol-3-yl)phenyl)-2-ethoxy-6-(2-methyl-2H-indazol-5-yl)-1,6-naphthyridin-7(6H)-one], for which the IC50 was above 10000 nM with HCT116 MTAP+/+, 100 to 10000 nM in the test on HCT116 MTAP−/−, below 100 nM in test [1] and below 100 nM at MAT2A homodimer.
As to `CCOc1ccc2cn(-c3ccc(OC)cc3)c(=O)c(-c3ccc(OC(F)F)cc3)c2n1` [Example 250, 8-(4-(difluoromethoxy)phenyl)-2-ethoxy-6-(4-methoxyphenyl)-1,6-naphthyridin-7(6H)-one], the IC50 in the test on HCT116 MTAP+/+ is 100 to 10000 nM; in the test on HCT116 MTAP−/− it was below 100 nM; in test [1], below 100 nM; on MAT2A homodimer, below 100 nM.
As for `CCOc1cnc2cn(-c3ccc4nn(C)cc4c3)c(=O)c(-c3ccc(OC(F)F)cc3)c2n1` [Example 145-A], the IC50 in the test on HCT116 MTAP+/+ is 100 to 10000 nM; with HCT116 MTAP−/−, below 100 nM; in test [1] it was below 100 nM; on MAT2A homodimer, below 100 nM.
For the compound `CCOc1ccc2cn(-c3ccc4ncn(C)c4c3)c(=O)c(-c3ccc(C(F)(F)F)cc3)c2n1` [Example 227, 2-ethoxy-6-(1-methyl-1H-benzo[d]imidazol-6-yl)-8-(4-(trifluoromethyl)phenyl)-1,6-naphthyridin-7(6H)-one], the IC50 with HCT116 MTAP+/+ is 100 to 10000 nM; in the test with HCT116 MTAP−/−, below 100 nM; in test [1] it was below 100 nM; on MAT2A homodimer, below 100 nM.
For `COc1ccc(-n2cc3cnc(NCC(F)(F)F)nc3c(-c3ccc(C4CC4)nc3)c2=O)cc1` [Example 198, 8-(6-cyclopropylpyridin-3-yl)-6-(4-methoxyphenyl)-2-((2,2,2-trifluoroethyl)amino)pyrido[4,3-d]pyrimidin-7(6)-one], the IC50 is above 10000 nM in the test on HCT116 MTAP+/+, 100 to 10000 nM with HCT116 MTAP−/−, 100 to 1000 nM in test [1] and below 100 nM on MAT2A homodimer.
As to `Cn1cnc2ccc(-n3cc4cnc(NCC(F)(F)F)nc4c(-c4ccc(Cl)cc4)c3=O)cc21` [Example 135, 8-(4-chlorophenyl)-6-(1-methyl-1H-benzo[d]imidazol-6-yl)-2-(2,2,2-trifluoroethylamino)pyrido[4,3-d]pyrimidin-7(6H)-one], the IC50 in the test on HCT116 MTAP+/+ is 100 to 10000 nM; with HCT116 MTAP−/− it was below 100 nM; in test [1], below 100 nM; at MAT2A homodimer, below 100 nM.
Consider `Cn1cc2cc(-n3cc4ccc(NCC(F)(F)F)nc4c(-c4ccc(C(F)(F)F)cc4)c3=O)ccc2n1` [Example 213, 6-(2-methyl-2H-indazol-5-yl)-2-((2,2,2-trifluoroethyl)amino)-8-(4-(trifluoromethyl)phenyl)-1,6-naphthyridin-7(6H)-one], for which the IC50 was above 10000 nM with HCT116 MTAP+/+, below 100 nM in the test with HCT116 MTAP−/−, below 100 nM in test [1] and below 100 nM at MAT2A homodimer.
On to `CCOc1ccc2cn(-c3ccc4nn(C)cc4c3)c(=O)c(-c3cnc(C(F)(F)F)nc3)c2n1` [Example 119-A], for which the IC50 was 100 to 10000 nM with HCT116 MTAP+/+, below 100 nM with HCT116 MTAP−/−, below 100 nM in test [1] and below 100 nM at MAT2A homodimer.
As for `Cn1cc2cc(-n3cc4ccc(NCC(F)(F)F)nc4c(-c4ccc(Cl)cc4)c3=O)ccc2n1` [Example 236, 8-(4-chlorophenyl)-6-(2-methyl-2H-indazol-5-yl)-2-(2,2,2-trifluoroethylamino)-1,6-naphthyridin-7(6H)-one], the IC50 with HCT116 MTAP+/+ was above 10000 nM; with HCT116 MTAP−/−, below 100 nM; in test [1], below 100 nM; on MAT2A homodimer it was below 100 nM.
For the compound `Cn1cnc2ccc(-n3cc4ccc(OCC(F)(F)F)nc4c(-c4ccc(C5CC5)nc4)c3=O)cc21` [Example 120-A], the IC50 was 100 to 10000 nM in the test with HCT116 MTAP+/+, below 100 nM with HCT116 MTAP−/−, below 100 nM in test [1] and below 100 nM at MAT2A homodimer.
Regarding `Cn1cc2cc(-n3cc4ccc(OCC(F)(F)F)nc4c(-c4ccc(OC(F)(F)F)nc4)c3=O)ccc2n1` [Example 131-A], the IC50 in the test with HCT116 MTAP+/+ was 100 to 10000 nM; in the test on HCT116 MTAP−/−, 100 to 10000 nM; in test [1], below 100 nM; at MAT2A homodimer, below 100 nM.
For the compound `CCOc1ccc2cn(-c3ccc4nn(C(C)C)cc4c3)c(=O)c(-c3ccc(Cl)cc3)c2n1` [Example 104-A], the IC50 in the test with HCT116 MTAP+/+ was 100 to 10000 nM; with HCT116 MTAP−/−, 100 to 10000 nM; in test [1], below 100 nM; on MAT2A homodimer, below 100 nM.
As to `[2H]C([2H])([2H])Oc1ccc(-c2c(=O)n(-c3ccc4nn(C)cc4c3)cc3ccc(OCC(F)(F)F)nc23)cc1` [Example 116-A], the IC50 in the test with HCT116 MTAP+/+ was above 10000 nM; with HCT116 MTAP−/−, below 100 nM; in test [1], below 100 nM; at MAT2A homodimer, below 100 nM.
`CCOc1cnc2cn(-c3ccc(OC)cc3)c(=O)c(-c3ccc(OC(F)F)cc3)c2n1` [Example 150-A]: the IC50 was 100 to 10000 nM in the test on HCT116 MTAP+/+, 100 to 10000 nM in the test on HCT116 MTAP−/−, below 100 nM in test [1] and below 100 nM on MAT2A homodimer.
